Source: US11220534B2, “Treatment of neurological diseases” (Lancaster University Business Enterprises Limited, priority 2016, dated 2022)
Where no end group is shown, it is not given here. [ ]: non-standard residue; d: D form. Aib = CC(C)(N)C(=O)O

Assays:
Assay type in all cases: in vivo
[1] = test system: C57BL/6 mice given MPTP; test: Rotarod motor control test in the MPTP Parkinson mouse model; conditions: 10 nmol/kg i.p. once daily for 2 weeks, FIG. 3, N=6 per group
From the text: A standard model to induce Parkinson like symptoms in mice is the injection of the chemical (MPTP) (Li et al., 2009). This chemical impairs or kills neurons in the brain that produce dopamine. The mice develop motor impairments, and the dopaminergic neurons in the brain are reduced in numbers and function. The enzyme tyrosine hydroxylase (TH) is required to synthesise dopamine. A loss of TH signifies a loss of dopamine production (Harkavyi et al., 2008).
Adult male C57BL/6 mice were given the dopaminergic toxin MPTP (20 mg/kg in 0.1 mL of PBS i.p. at 2-h intervals of 4 doses MPTP; Sigma) or vehicle (PBS) for one day. This treatment selectively affects dopaminergic neurons and induces Parkinson-like symptoms in mice.
The dose of peptide tested was 10 nmol/kg body weight. The peptides were administered by a once-daily intraperitoneal injection for 2 weeks. Saline injections were administered as a control. Six animals per group were injected with a peptide or a saline control.
The rotarod consists of a rotating pole that accelerates over time. Mice are placed on the rod, and motor skills are tested by accelerating the rotation. As the rotation increases, animals lose grip and fall on a cushion located below the rod. […] Each animal's endurance time was recorded, and the average was calculated. Data were analysed using a one-way ANOVA with post-hoc Bonferroni tests.

[2] = test system: APP/PS1 transgenic mice; test: Immunohistochemical measurement of beta-amyloid plaque load in the cortex of APP/PS1 transgenic mice
From the text: Animal models have been developed to test novel drugs. A standard model for Alzheimer's disease is transgenic mice that express human mutated genes for amyloid production that are known to induce Alzheimer's disease in humans. These APP/PS1 transgenic mice recapitulate some of the symptoms of Alzheimer's disease such as the aggregation of amyloid in the brain, memory loss and the loss of synapses (Radde et al., 2006).
The APP/PS1 mice express human Swedish mutated APP and human mutated presenilin-1 which induce Alzheimer's Disease in humans.
The dose of peptide tested was 10 nmol/kg body weight. The peptides were administered by a once-daily intraperitoneal injection for 8 weeks. Saline injections were administered as a control. Six animals per group were injected with a peptide or a saline control.
Animals (6 per group) were perfused transcardially with 30 ml of ice-cold PBS and 30 ml of ice-cold 4% paraformaldehyde to postfix the brain. The brains were removed and placed in fresh 30% sucrose solution in PBS to cryoprotect tissue and cut at a thickness of 40 μm on a cryostat. Sections were chosen according to stereological rules, with the first section taken at random and every 5th section afterwards. Between 7 and 13 sections were analysed per brain.
Immunostaining techniques were used to assess the neuronal plaque load (anti beta-amyloid rabbit polyclonal antibody (1:200, rabbit polyclonal-Invitrogen 71-5800) and of synaptophysin (polyclonal rabbit anti-synaptophysin primary antibody, 1:2000, Abcam, Cambridge, UK) to measure the amount of synapses in the cortex. Brain samples were first exposed to 99% formic acid for 7 minutes and then washed 3 times for 10 minutes in TBS. Pre-treatment with 99% formic acid is known to drastically increase the detection of beta-Amyloid in formalin-fixed brain samples. Then samples were incubated in 0.3% H2O2 (Sigma Aldrich; Cat.-No.: 516813) in TBS for 30 minutes on the shaker to deplete endogenous peroxides activity, and were 3 times washed in TBS for 10 minutes afterwards.
To increase permeability of membranes in the brain tissue, samples were exposed to 0.3% Triton X-100 (Sigma Aldrich; Cat.-No.: 516813) in TBS for 10 minutes on the shaker. Unspecific proteinophilic binding in the tissue was saturated by incubating the samples with 5% goat serum (Gibco; Cat.-No.: 16210-064) in TBS for 30 minutes on the shaker.
A primary antibody against beta-Amyloid or synaptophysin was added and incubated overnight on the shaker at 4° C. The antibody was polyclonal and raised against a synthetic beta-Amyloid 1-43 peptide in rabbit. The primary antibody was used in a final dilution of 1 to 250 in TBS containing 2% goat serum and […]. […]

[3] = test system: APP/PS1 mice; test: Y-maze test for working memory in AD mice; conditions: FIG. 6, N=8-14 per group
From the text: Materials and methods in Example 2 are the same as Example 1 except when stated. Reagents used in Example 2 only include antibodies to p-PI3Kp85, PI3Kp85, p-Akt (ser473), Akt, p-GSK3β ([…]), and GSK3β from Abcam, Inc. Cambridge, UK. The antibody to p-tau (AT8) from Thermo Scientific USA. Mouse Anti-β-actin, Anti-Rabbit IgG, Anti-mouse IgG, CY3-Anti-mouse IgG, RIPA Lysate, BCA Protein Assay Kit, DAPI staining solution and Anti-fluorescence decay agent from Boster (Wuhan, China). Spatial working memory was assessed by recording spontaneous alternation behaviour in a Y-maze. The maze was made of three 30 cm long, 7 cm high, 15 cm wide arms and the arms converged in an equilateral triangular central area. Each mouse was placed at the central triangular area and allowed to move freely through the maze during an 8-min session. The total arm entries and arm order was recorded by Smart 3.0 software system. Alternation was defined as successive entries into the three arms, on overlapping triplet sets. The percent alternation was calculated as the ratio of actual to possible alternations (defined as the total number of arm entries minus 2) multiplied by 100.

YXEGTFTSDYSIYLDKQAAXEFVNWLLAGGPSSGAPPPSKRRQRRKKRGY-NH2 (Y[Aib]EGTFTSDYSIYLDKQAA[Aib]EFVNWLLAGGPSSGAPPPSKRRQRRKKRGY-NH2) [DA5, No. 12; X=aminoisobutyric acid]
impairment of motor skills (rotarod endurance time) [1]: protect mice from an impairment of motor skills induced by MPTP | beta-amyloid plaque load in the cortex (% area positive for beta amyloid in cross sections of the brain cortex) ([2]; 10 nmol/kg body weight, once-daily intraperitoneal injection for 8 weeks, FIG. 1, N=6 per group): reduces beta-amyloid plaque load | beta-amyloid plaque load compared with the single GIP or GLP-1 analogues ([2]; 10 nmol/kg i.p. once daily for 8 weeks, FIG. 1): superior to the single GIP or GLP-1 analogues | spatial working memory (percent alternation, Y-maze) [3]: improved spatial working memory
